The values that follow come from patent US5519055A, “Substituted kynurenines and process for their preparation” (University of Maryland at Baltimore, priority 1993, dated 1996).

For series [1], the target named is T1, KAT (partially purified enzyme preparation) (Rattus norvegicus, UniProt Q08415).
T1 construct: a preparation of partially purified enzyme in a total volume of 0.1 ml; from tissue
T1 sequence (Q08415 1-423): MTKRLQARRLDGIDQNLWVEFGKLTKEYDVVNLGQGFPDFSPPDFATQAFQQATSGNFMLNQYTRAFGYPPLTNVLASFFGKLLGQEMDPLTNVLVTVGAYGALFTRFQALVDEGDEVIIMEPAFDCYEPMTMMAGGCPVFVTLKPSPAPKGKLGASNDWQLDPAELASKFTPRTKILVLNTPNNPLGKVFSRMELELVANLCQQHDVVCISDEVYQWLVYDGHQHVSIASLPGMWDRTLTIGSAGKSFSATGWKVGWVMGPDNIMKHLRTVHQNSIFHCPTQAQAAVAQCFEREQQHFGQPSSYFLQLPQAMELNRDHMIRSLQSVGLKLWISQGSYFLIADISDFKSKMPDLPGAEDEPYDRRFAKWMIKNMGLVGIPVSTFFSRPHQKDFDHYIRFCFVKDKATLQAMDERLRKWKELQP
Description: Kinetic analysis of KAT inhibitors using a partially purified enzyme preparation. The series is classed as biochemical. To be noted: KYN varied 2 μM to 2 mM, 1 mM pyruvate, pH 8.0, 2 h at 37° C., double reciprocal plots. How it is done:
C) Kinetic analysis of KAT inhibitors using a partially purified enzyme preparation (Brain Research, 534, 37-44 (9)
The reaction mixture contained [^3 H]KYN (30 nCi), diluted with unlabelled KYN to yield a final concentration of 2 μM, 1 mM pyruvate, 70 μM pyridoxal 5'-phosphate, 150 mM Tris-acetate buffer, pH 8.0, and a preparation of partially purified enzyme in a total volume of 0.1 ml. Test compounds were included in the incubation mixture as needed. The reaction was started by the addition of pyruvate. After incubation for 2 h at 37° C., the reaction was terminated by the addition of 14 μl of 50% (w/w) trichloroacetic acid. Subsequently, 1 ml of 0.1M HCl was added and denaturated protein was removed by a 4-min centrifugation in a Beckman 52 B microfuge. 1 ml of the resulting supernatant was applied to a Dowex 50 W column (0.5×1.0 cm; H^+ form) and washed with 1 ml of 0.1M HCl, followed by 1 ml of distilled water. [^3 H]KYNA was eluted with 2 ml of distilled water and quantitated by liquid scintillation spectrometry. Enzyme measurements were performed in triplicate samples. Blanks were obtained by using an enzyme preparation which had been heat-deactivated for 10 min in a boiling water bath. […] Double reciprocal plots were constructed and lines of best fit were determined by linear regression analysis.

Series [2] deals with KYNA production by rat tissue slices. Description: Determination of inhibition of KYNA production by rat tissue slices (cerebral cortex). In kind it is cell-based. The settings on record: 50 μM L-KYN, 2 h at 37° C., pH 7.4. From the text:
(§1) Compounds which act as KAT inhibitors may be identified using standard test, for example, measuring their ability to inhibit KAT activity in rat brain homogenate as described, for example, in J. Neurochem., 57, 533-540 (1991) or their inhibitory effect on Kynurenic Acid (KYNA) production by rat brain slices as described, for example, in J. Neurochem., 52, 1629-1636 (1989). KAT catalyzes the biosynthesis of KYNA from Kynurenine (KYN): [drawing 2] and it is singularly responsible for the regulation of extracellular KYNA concentrations in the brain (J. Neurochem., 57, 533-540, 1991).
B) Determination of inhibition of KYNA production by rat tissue slices
Routinely, slices (base 1×1 mm; weight ≈1.5 mg/slice) from the cerebral cortex were separated on ice and transferred to culture wells (10 slices/well) containing 1 ml of oxygenated Krebs-Ringer buffer (NaCl, 118.5 mM; KCl, 4.75 mM; CaCl 2, 1.77 mM; MgSO4, 1.18 mM; NaH2 PO4, 12.9 mM; NaH2 PO4, 3 mM; glucose, 5mM; pH 7.4). Subsequently, the tissue was preincubated for 10 min at 37° C. and incubated further for 2 h at 37° C., in the presence of 50 μM L-KYN in an oxygenated chamber, on a shaking water bath. Compounds of the present invention were included in the incubation mixture as needed. Following incubation, the culture wells were immediately placed on ice, and the slices were rapidly separated from the incubation medium.
For KYNA determination, 1 ml samples of the incubation medium were immersed in a boiling water bath for 10 min, and the precipitated proteins were removed by centrifugation (8,730× g, 10 min). The supernatants were diluted (1:1, v/v) with 0.2M HCl and applied to Dowex 50 W (hydrogen form, Sigma) cation-exchange columns (0.5×2 cm). Subsequently, the columns were washed with 1 ml of 0.1M HCl and 1 ml of water, and the fraction containing KYNA was eluted with 2 ml of water. The eluates were applied to a 3-μm C18 HPLC column (100×3.2 internal diameter, Bioanalytical Systems, West Lafayette, Ind., U.S.A.), and KYNA was isocratically eluted with a mobile phase containing 50 mM ammonium acetate and 5% methanol at a flow rate of 0.5 ml/min. Under these conditions, the retention time of KYNA was ≈7 min.
Data were recorded and calculated with a Hewlett-Packard 3390A integrator connected to a model 160 UV absorbance detector (Beckman Instruments, Berkeley, Calif., U.S.A.) set at 340 nm.
In this assay, (D,L)-2-amino-4-(2-amino-5-chlorophenyl)-4-oxo butyric acid, also known as D,L-5-chloro-kynurenine, was tested with the following results: […]

For series [3], the target named is Kynurenine Aminotransferase (KAT). Briefly: Determination of KAT activity inhibition in rat brain homogenate. The settings on record: 2 μM [3H]KYN, 2 h at 37° C., pH 8.0, read-out: ID50 (inhibition of KAT enzyme activity). The series is classed as biochemical.
Text: as §1
A) Determination of KAT activity inhibition in rat brain homogenate
KAT was measured as described in detail by Okuno et al. (Measurement of rat brain kynurenine aminotransferase at physiological kynurenine concentrations, J. Neurochem., 57, 533-540, 1991).
Briefly, animals were killed by decapitation and the brain tissue was homogenized (1:5 v/w in 5 mM Trisacetate buffer, pH 8.0, containing 10 mM 2-mercaptoethanol and 50 μM pyridoxal 5'-phosphate) and incubated for 2 h at 37° C. in the presence of 2 μM [^3 H]KYN (30 nCi), 1 mM 2-oxoglutarate and 70 μM pyridoxal 5'-phosphate in 150 mM Tris-acetate buffer, pH 8.0. […]
Newly synthesized [^3 H]KYNA was separated from [^3 H]KYN on a Dowex 50 W cation-exchange column and quantitated by liquid scintillation spectrometry. […]

Series [4] concerns glycine modulatory site of the N-methyl-D-aspartate (NMDA) receptor complex. The settings on record: J. Neurochem., 52, 1319-1328, 1989; cited from earlier work.
Series [5] concerns excitatory amino acid (EAA) receptor. The settings on record: J. Neurochem., 52, 1319-1328, 1989; cited from earlier work.
Substrate in series [6]: Nc1ccccc1C(=O)C[C@H](N)C(=O)O
Briefly: purified protein, by the assay type. The settings on record: other: substrate KYN varied 2 μM to 2 mM, 1 mM pyruvate, pH 8.0, 2 h at 37° C., double reciprocal plots.

In turn, `Nc1ccc(Cl)cc1C(=O)CC(N)C(=O)O` (racemic) [Example 3, 2-amino-4-(2-amino-5-chlorophenyl)-4-oxo-butyric acid] returned an inhibitory constant (Ki) in series [1] of 88 µM. In series [2] (25 μM compound), this molecule came in with an inhibition at 25 µM of 33%. For the same molecule, at 50 µM the inhibition in series [2] (50 μM compound) was 39%. In addition, the inhibition at 100 µM in series [2] (100 μM compound) amounted to 56%. In series [2] (250 μM compound), this molecule came in with an inhibition at 250 µM of 66%. Further, in series [3], the IC50 was 78 µM.
With `O=C(O)c1cc(=O)c2ccccc2[nH]1` [KYNA, Kynurenic Acid], in series [4], the “affinity to the glycine modulatory site of the NMDA receptor complex” value is on record as “particularly high affinity”. Besides, the “excitatory amino acid (EAA) receptor antagonism” value in series [5] is listed as “effective excitatory amino acid (EAA) receptor antagonist”.

B1: KAT (partially purified enzyme preparation) (Rattus norvegicus) (protein)
chain: MTKRLQARRLDGIDQNLWVEFGKLTKEYDVVNLGQGFPDFSPPDFATQAFQQATSGNFMLNQYTRAFGYPPLTNVLASFFGKLLGQEMDPLTNVLVTVGAYGALFTRFQALVDEGDEVIIMEPAFDCYEPMTMMAGGCPVFVTLKPSPAPKGKLGASNDWQLDPAELASKFTPRTKILVLNTPNNPLGKVFSRMELELVANLCQQHDVVCISDEVYQWLVYDGHQHVSIASLPGMWDRTLTIGSAGKSFSATGWKVGWVMGPDNIMKHLRTVHQNSIFHCPTQAQAAVAQCFEREQQHFGQPSSYFLQLPQAMELNRDHMIRSLQSVGLKLWISQGSYFLIADISDFKSKMPDLPGAEDEPYDRRFAKWMIKNMGLVGIPVSTFFSRPHQKDFDHYIRFCFVKDKATLQAMDERLRKWKELQP
Regarding B1, the Michaelis constant (Km) in series [6] came out at 369 µM.
